# Source: publication PMC4211885 (PLoS ONE, 2014)
# Entries after “also recorded” stand apart in the source; their conditions may differ. Read-outs that look alike come from different tables or passages of the source.
# Key:
# [1] = tested on: CFTR conductance (intracellular cAMP); experiment: cAMP detection by whole oocyte (CFTR) conductance in oocytes co-expressing CFTR and OA/TAMac; assay type: cell-based, Xenopus laevis; details: FSK at 50 µM
# Source text: It is also unlikely that the effects of tyramine at high concentration result from an increase in cAMP. It is common that octopaminergic GPCRs can couple through the canonical Gαs/cAMP pathway so we used co-expression of the Cystic Fibrosis Trans-membrane Conductance Regulator (CFTR) as a means of testing for increases in cAMP (see methods for more detail) [60]–[63].
# As a means of detecting rises in intracellular cAMP levels we tested oocytes co-expressing the CFTR channel and OA/TAMac. Heterologously expressed CFTR can be used as an extremely sensitive assay for intracellular cAMP in Xenopus oocytes. CFTR mediates a chloride-selective leak conductance that is activated by increases in intracellular cAMP [63]. Activity of CFTR can thus be used to indicate whether changes in cAMP correspond with ligand application [60]–[62]. Whole oocyte conductance was monitored using a step protocol and calculated from I/V plots. The command voltage was stepped from the holding potential to various levels (−10 mV to −55 mV in −5 mV increments) for 150 ms. The steady state current during each step was plotted against the command voltage and fit to a line using Clampfit 10 software (Fig. S7A). The slope of the line was taken as the conductance. To minimize the magnitude of the holding current between drug applications, oocytes expressing CFTR were typically held at −20 mV which is close to the typical chloride reversal potential. This was confirmed by the fact that the direct-current evoked by forskolin could appear inward or outward at −20 mV. Oocytes expressing either OA/TAMac alone or OA/TAMac and CFTR typically had resting membrane potentials between −20 mV and −30 mV (mean of −26±5 mV calculated from oocytes in Fig. S7) due to increased expression of endogenous chloride currents.
# (A) The measurement of whole oocyte conductance was done by plotting steady state current against the command voltage recorded during a step protocol. It is defined as the slope (I/V) of the linear least squares regression line. In the example shown tyramine (TA) causes no apparent change in whole oocyte conductance. Octopamine (OA) causes a small change compared to the adenylate cyclase activator forskolin (FSK). […] These cumulative data are from 20 OA/TAMac and CFTR-injected oocytes and 6 OA/TAMac -only injected oocytes. Conductance was measured as shown in A. Not all compounds were tested in all oocytes. Each response is treated as an independent sample. Concentrations of OA and TA were at 100 µM or 1000 µM, FSK was at 50 µM. Some points obtained at 3 minutes were grouped with the 4 minute responses. (C) The change in conductance (Δg) occurring within oocytes as determined by the difference between baseline and the indicated time points post-application of compound. […]
# OA/TAMac receptor [2] = target: T1, OA/TAMac receptor (Macrobrachium rosenbergii, UniProt D9U2B9); experiment: Agonist-evoked direct-current (ID) in Xenopus oocytes injected with OA/TAMac cRNA, two-electrode voltage clamp; assay type: cell-based; details: for Amplitude of agonist evoked ID relative to octopamine-evoked current: all agonists at 50 µM, within single oocytes
# Source text: We used Xenopus oocytes to express the prawn OA/TAMac receptor by injection of synthetic cRNA. The injection of foreign RNA into Xenopus oocytes typically induces the expression of multiple native chloride and potassium channels. Ligand evoked currents resulting from modulation of these channels have been used extensively in the characterization of heterologously expressed GPCRs. Oocytes are typically voltage clamped at a constant membrane potential around −60 mV and deviations in holding potential are measured. We refer to currents measured in this way as direct-currents (ID) (after) in order to distinguish them from the voltage-evoked transient current (ICl-T) described later.
# Both flow rate and pulse duration were precisely controlled and comparisons were made relative to currents within single oocytes.
# To characterize the dose dependence of ID, series of single transmitters were applied to different individual oocytes injected with OA/TAMac. Oocytes were voltage clamped at −60 mV and tyramine, (+/−)-octopamine, or dopamine were applied using 30 second perfusion-switched applications (see methods for more details).
# (§1) Recordings were performed 1–3 days post-injection at room temperature (20–22°C). Currents were recorded under two-electrode voltage clamp using an Axoclamp 900a amplifier (Molecular Devices LLC, CA USA). A digidata 1440a analog to digital converter was used in conjunction with pCLAMP 10 software (Molecular Devices) for data acquisition and to generate voltage commands. For each step protocol or chemical application data were typically sampled at 5 KHz and filtered digitally at 1 KHz. For the duration of each experiment the current was also continuously sampled at 1 kHz using a separate minidigi 1A digitizer (Molecular Devices). Glass microelectrodes were pulled from filamented 1.2 mm thin wall borosilicate glass (World Precision Instruments, Sarasota, FL) using a Sutter Instruments P-97 puller. They were filled with 3 M KCl and had resistances of 0.8–2.0 MΩ. A silver chloride pellet immersed in 3 M KCl and connected to the bath via a 3% agar bridge made with 3 M KCl was used as the reference electrode.
# Oocytes were continuously perfused at 1.5 mL/min either with ND 96 or test compounds dissolved in ND 96. Two types of application were used over the course of this study, a perfusion-switch or a focal application. In all cases solutions were delivered through a gravity fed system and switched using a computer controlled bank of pinch valves. Flow rate was regulated with a manual screw-type pinch valve.
# For focal application a triple barrel pipette with three parallel independently switched channels was positioned about 1 mm from the surface of the oocyte, up-stream of a cross flow, at an approximate angle of 45 degrees (schematic shown in Fig. S8). Drugs were focally applied during continuous perfusion with ND 96.
# (§2) In experiments where more than three drugs or concentrations were tested a precisely controlled 30 s perfusion-switch was used. Up to eight channels were connected to the bath via an 8-way manifold. There was an approximately 6–7 s delay for solutions to traverse the dead volume between the manifold and the bath.
# Uninjected oocytes = experiment: Direct-current response of uninjected oocytes (control); assay type: cell-based, Xenopus laevis; details: n = 5
# Protocol: We first tested receptor-injected oocytes for the occurrence of a response to biogenic amines. Applications of tyramine, octopamine, or dopamine produced an inward ID, typically ranging between 50 nA and 500 nA, under a constant holding potential of −60 mV. […] The amplitude of tyramine evoked ID at concentrations below 10 µM was greater than octopamine or dopamine within the same oocyte (Figs. 2A and S2). […] Instead it would rise and then begin to decline prior to the removal of agonist (dotted line). However, at high concentrations, above 100 µM, ID appeared to approach a stable plateau (Fig. 2B).
# as §1
# Supplementary file pone.0111314.s001.tif: Figure S1 Direct-current (ID) responses are specifically evoked by agonists in oocytes injected with OA/TAMac only. […] The trace is representative of an experimental set of 5 oocytes. Additional uninjected oocytes were tested with various experimental sets throughout the course of this study. (B) A typical preliminary test of agonist sensitivity. Injection of OA/TAMac cRNA alone is sufficient to confer sensitivity to OA. […] Applications are approximately 30 seconds in the upper trace. (C) The response of clonidine (CN), synephrine (SN), and OA within a single OA/TAMac injected oocyte. […] All drugs are applied for 30 seconds each as indicated by black rectangles. Agonist evoked currents are measured within oocytes relative to the octopamine response at 50 µM. The comparison is made to OA because the amplitude of the tyramine response becomes small at concentrations above 10 µM. This is due to a mechanistically undefined process not seen with any other agonist we tested. Note that TA is the first compound applied to a naïve oocyte in this example. […] (TIF) Click here for additional data file.
# [3] = Solubility limit in ND 96 when preparing test solutions; assay type: physicochemical; details: ND 96, from methanol stock
# Protocol: Compounds were obtained from Sigma and dissolved in ND96 or calcium free ND 96 (96 mM NaCl, 2 mM KCl, 5 mM MgCl2, 0.1 mM EGTA, and 5 mM HEPES, pH 7.6), unless stated otherwise. […] SQ-22536 was prepared as a 0.1 M stock in water. Yohimbine was dissolved in acidic ND 96 to 1 mM, before being serially diluted at pH 7.6. Forskolin was prepared as a 0.05 M stock in DMSO. Thapsigargin was prepared as a 0.01 M stock in DMSO. (−)-Quinpirol was made as a 0.01 M stock in ND96 and stored in aliquots at −20°C. […] For all antagonists serial dilutions were made in ND 96 containing 50 µM octopamine and applied as a mixture.
# OA/TAMac receptor [4] = target: T1, OA/TAMac receptor; experiment: Antagonist block of ID evoked by 50 µM octopamine in OA/TAMac-injected oocytes; assay type: cell-based
# Protocol: as §1, §2
# [5] = antagonist applied as mixture with 50 µM octopamine, 30 second perfusion-switch, −60 mV, estimated graphically, read-out: IC50 for block of octopamine-evoked ID
# T1 sequence (D9U2B9 entry or part of it): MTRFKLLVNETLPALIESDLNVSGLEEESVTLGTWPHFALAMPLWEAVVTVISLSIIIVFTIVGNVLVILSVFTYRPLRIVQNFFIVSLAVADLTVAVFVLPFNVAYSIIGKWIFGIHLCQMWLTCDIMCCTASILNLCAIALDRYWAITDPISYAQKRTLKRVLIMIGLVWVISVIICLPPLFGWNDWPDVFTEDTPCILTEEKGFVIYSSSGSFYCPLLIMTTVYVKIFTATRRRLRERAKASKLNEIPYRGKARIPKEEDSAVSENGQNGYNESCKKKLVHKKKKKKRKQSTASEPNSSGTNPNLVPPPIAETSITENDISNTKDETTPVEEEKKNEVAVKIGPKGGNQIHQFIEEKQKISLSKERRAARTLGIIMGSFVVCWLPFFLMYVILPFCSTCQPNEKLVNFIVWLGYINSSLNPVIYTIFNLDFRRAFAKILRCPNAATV
smiles,measurement,setting,value
"C=C[C@@]1(C)CC(=O)[C@]2(O)[C@@]3(C)[C@@H](O)CCC(C)(C)[C@@H]3[C@H](O)[C@H](OC(C)=O)[C@@]2(C)O1 [FSK, forskolin]",Evoked whole oocyte conductance,[1],significantly larger conductance than baseline or TA
NCCc1ccc(O)c(O)c1 [dopamine],ID response amplitude (mean ± s.d.),"OA/TAMac receptor [2]; 10 µM, 10 second focal application, −60 mV, OA/TAMac and CFTR co-injected, n = 11 oocytes",46±31 nA
same,EC50,"OA/TAMac receptor [2]; 30 second perfusion-switch, voltage clamped at −60 mV, approximate, estimated graphically from plot, read-out: EC50 of transmitter evoked direct-current (ID), normalized I/Imax",~63 µM
same,Concentration at which evoked inward currents became visible/apparent,"OA/TAMac receptor [2]; 30 second perfusion-switched applications, −60 mV",around 1 µM
same,Spearman rank-order correlation (rS) between rise rate and peak amplitude of evoked ID,OA/TAMac receptor [2]; all responses of the concentration series of Figure 3C,0.97
same,Response of uninjected oocytes,Uninjected oocytes,no response
same,Response of uninjected oocytes,Uninjected oocytes; listed as DA,do not respond
O=C(CCCN1CCC(O)(c2ccc(Cl)cc2)CC1)c1ccc(F)cc1 [haloperidol],Limit of solubility,[3],could not be tested at 100 µM because of its limit of solubility
Cc1ccc(N(CC2=NCCN2)c2cccc(O)c2)cc1 [phentolamine],IC50,OA/TAMac receptor [4]; [5],~0.98 µM
NCCc1ccccc1 [β-phenylethylamine],Amplitude of agonist evoked ID relative to octopamine-evoked current,OA/TAMac receptor [2]; 30 second perfusion-switch,comparable or greater amplitude than octopamine
NC1=NCC2c3ccccc3Cc3ccccc3N12 (stereo not drawn) [epinastine],IC50,OA/TAMac receptor [4]; [5],~3.7 µM
NCCc1c[nH]cn1 [histamine],Amplitude of agonist evoked ID relative to octopamine-evoked current,OA/TAMac receptor [2]; 30 second perfusion-switch,no response or minimal response
same,Amplitude of agonist evoked ID relative to octopamine-evoked current,"OA/TAMac receptor [2]; 30 second perfusion-switch, listed as Histamine",minimal response
CCCN1CCC[C@@H]2Cc3n[nH]cc3C[C@H]21 [(−)-quinpirole],Amplitude of agonist evoked ID relative to octopamine-evoked current,OA/TAMac receptor [2]; 30 second perfusion-switch,smaller currents than octopamine or β-PEA
same,Amplitude of agonist evoked ID relative to octopamine-evoked current,"OA/TAMac receptor [2]; 30 second perfusion-switch, listed as quinpirole",produces a response in injected oocytes and not in uninjected oocytes
Clc1cccc(Cl)c1N=C1NCCN1 [Clonidine],Amplitude of agonist evoked ID relative to octopamine-evoked current,OA/TAMac receptor [2]; 30 second perfusion-switch,no visible response
COC(=O)[C@@H]1[C@H]2C[C@H]3c4[nH]c5ccccc5c4CCN3C[C@@H]2CC[C@@H]1O [yohimbine],IC50,OA/TAMac receptor [4],~0.48 µM
CNCC(O)c1ccc(O)cc1 (racemic) [(+/−)-synephrine],Amplitude of agonist evoked ID relative to octopamine-evoked current,OA/TAMac receptor [2]; 30 second perfusion-switch,smaller currents than octopamine or β-PEA
C/C=C(/C)C(=O)O[C@H]1C(C)=C2[C@H]([C@@H]1OC(=O)CCCCCCC)[C@@](C)(OC(C)=O)C[C@H](OC(=O)CCC)[C@@]1(O)[C@H]2OC(=O)[C@@]1(C)O [thapsigargin],Effect of pre-incubation on tyramine-induced ID waveform,"OA/TAMac receptor [2]; 1.7 µM in calcium-free ND 96 for three hours, n = 2",no apparent effect on the tyramine induced plateau
CN1CCc2cc(Cl)c(O)cc2[C@@H](c2ccccc2)C1 [SCH-23390],IC50,OA/TAMac receptor [4]; [5],~9.6 µM
Nc1ncnc2c1ncn2C1CCCO1 (stereo not drawn) [SQ-22536],Effect of adenylate cyclase inhibitor on amine evoked ID,"OA/TAMac receptor [2]; tyramine n = 3, octopamine n = 6",no apparent effect; also recorded: no obvious effect
